From paper PMC7719157 (Pharmacology Research & Perspectives, 2020)

Tests used:
[1] = target: T1, PPARγ (Homo sapiens, UniProt P37231); assay: TR-FRET coactivator; type: biochemical
T1 sequence (P37231 223-505 limits assumed): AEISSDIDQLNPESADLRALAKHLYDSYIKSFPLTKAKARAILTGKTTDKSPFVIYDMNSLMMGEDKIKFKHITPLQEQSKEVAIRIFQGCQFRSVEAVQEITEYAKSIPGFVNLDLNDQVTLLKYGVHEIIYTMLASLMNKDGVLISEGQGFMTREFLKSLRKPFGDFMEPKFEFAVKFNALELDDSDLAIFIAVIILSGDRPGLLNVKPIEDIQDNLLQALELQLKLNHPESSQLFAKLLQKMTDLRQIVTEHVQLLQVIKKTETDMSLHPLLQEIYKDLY

[2] = target: T1, PPARγ; assay: [3H]rosiglitazone radioligand displacement; type: binding
[3] = target: T2, PPARδ (Homo sapiens, UniProt Q03181); assay: AlphaScreen coactivator; type: biochemical
T2 sequence (Q03181 171-441 limits assumed): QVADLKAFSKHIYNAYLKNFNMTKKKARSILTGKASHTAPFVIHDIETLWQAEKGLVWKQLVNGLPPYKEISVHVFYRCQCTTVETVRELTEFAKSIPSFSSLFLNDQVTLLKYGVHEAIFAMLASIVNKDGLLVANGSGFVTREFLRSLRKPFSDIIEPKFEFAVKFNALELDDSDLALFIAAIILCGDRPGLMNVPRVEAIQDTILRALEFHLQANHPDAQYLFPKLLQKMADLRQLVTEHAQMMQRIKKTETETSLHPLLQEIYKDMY

[4] = target: T3, PPARα (Homo sapiens, UniProt Q07869); assay: AlphaScreen coactivator; type: biochemical
T3 sequence (Q07869 196-468 limits assumed): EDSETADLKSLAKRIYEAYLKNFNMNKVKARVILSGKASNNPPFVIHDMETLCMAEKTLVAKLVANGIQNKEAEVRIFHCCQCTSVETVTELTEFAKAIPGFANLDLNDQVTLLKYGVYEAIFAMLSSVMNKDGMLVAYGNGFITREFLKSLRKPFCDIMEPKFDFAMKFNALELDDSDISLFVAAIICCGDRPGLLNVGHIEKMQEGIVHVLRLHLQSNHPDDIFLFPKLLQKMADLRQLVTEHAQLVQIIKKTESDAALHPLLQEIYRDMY

IC50 [1] | Ki [2] | IC50 [3] | IC50 [4] | Compound
0.00452 µM | – | – | – | O=C(Nc1ccccc1)c1cc([N+](=O)[O-])ccc1Cl [GW9662]
– | 0.14 µM | 48 µM | 46 µM | CC(C)(C)c1ccc(-c2nc(CBr)nn2-c2cccc(O)c2)cc1 [MM902, 3‐(3‐(bromomethyl)‐5‐(4‐(tert‐butyl) phenyl)‐1H‐1,2,4‐triazol‐1‐yl) phenol]
